Experiments:
[1] = Weight loss activity of cyclic dipeptides; conditions: in vivo
Text: As to the active ingredient, while the effect as to weight loss appears to be stereospecific, it is contemplated that alterations can be made to the compound to enhance the activities thereof contemplated to fall within the scope of the instant invention.

[2] = Intraperitoneal cyclo (His-Pro), inhibition of appetite in animals receiving liquid diets; format: in vivo; conditions: intraperitoneally, 20 mg/kg/day for 24 days
[3] = Stability in vivo and in drinking water
Text: While it is known that the pyroglutamic acid residue often confers stability on a peptide carrying the same at a terminus, such as TRH, the precursor of cyclo (His-Pro), the pyroglutamic acid residue is not present in cyclo His-Pro.
The carrier(s) must be "acceptable" in the sense of being compatible with other ingredients of the formulation and not deleterious to the recipient thereof. […] Formulations suitable for administration conveniently comprise sterile aqueous solutions of the active chemical, which may be conveniently prepared by mixing the active chemical with water, and after rendering said solution sterile it may be presented in sealed containers.

[4] = tested on: pancreatic or intestinal enzymes; experiment: Resistance to proteolytic digestion
[5] = Passage of the blood-brain barrier; format: in vivo; conditions: non-CNS administration
Procedure: Thus, it was determined in the development of the instant invention that cyclo (His-Pro), unlike the vast majority of biologics that are susceptible to degradation in the gastrointestinal tract, can be administered by those routes normally employed for drug administration, such as intramuscularly and intravenously, but also that cyclo (His-Pro) can be administered orally. […] Although not an absolute barrier of the passage of compounds into the brain, many compounds cross very slowly if at all to any effective extent.

[6] = Intracerebroventricular administration / lateral ventricle infusion, appetite and weight gain; format: in vivo, rodents; conditions: administered IVT acutely
[7] = cited from earlier work
[8] = Oral cyclo (His-Pro) in drinking water, weight gain in rodents
[9] = Oral administration to rats, appearance in plasma; conditions: administered orally to rats
[10] = oral in drinking water, versus control animals, P<0.02

| SMILES | weight loss activity [1] | inhibition of appetite [2] | effectiveness after addition to water ([3]; added to water, such as drinking water from the tap) | enzymatic degradation in vivo ([3]; in vivo) | half-life ([3]; in vivo) | resistance to proteolytic digestion [4] | blood-brain barrier passage [5] | duration of action [6] | duration of appetite reduction ([7]; after intracerebroventricular administration to rodents) | duration of inhibition of weight gain ([7]; infused into the lateral ventricle) | cause of weight loss (satiety versus illness) ([8]; experimental studies) | mean body weight reached by experimental animals ([8]; oral in drinking water, 1 or 2 mg/kg/day for 14 to 18 days, controls gained from a mean of 248 to 396 gms) | inhibition of weight gain [8, 10] | inhibition of weight gain (minus %) [8, 10] | form appearing in plasma [9] |
| --- | --- | --- | --- | --- | --- | --- | --- | --- | --- | --- | --- | --- | --- | --- | --- |
| O=C(O)CCC1NC(=O)C(Cc2ccccc2)NC1=O (stereo not shown) [cyclo (Glu-Phe)] | did not provide weight loss activity | – | – | – | – | – | – | – | – | – | – | – | – | – | – |
| O=C1[C@@H]2CCCN2C(=O)[C@@H]2CCCN12 [cyclo (Pro-Pro)] | did not provide weight loss activity | – | – | – | – | – | – | – | – | – | – | – | – | – | – |
| O=C1N[C@@H](Cc2cnc[nH]2)C(=O)N2CCC[C@@H]12 [cyclo (His-Pro), L-histidyl-L-proline diketopiperazine] | – | can induce inhibition of appetite | retain effectiveness | resistant to enzymatic degradation in vivo | long half-life | uniquely resistant to proteolytic digestion | crosses the blood-brain barrier to achieve effective concentrations in a short period of time | about 12 hours | ≤ 12 h | 2 weeks | due to induction of satiety, not of nausea, vomiting or illness | 384 gms | 12 grams | 8.1% | completely unaltered biochemically |
